# Experimental data taken from paper PMC8787096, “Antagonism of nicotinic acetycholinergic receptors by CN‐105, an apoE‐mimetic peptide reduces stroke‐induced excitotoxicity” (Clinical and Translational Medicine, 2022).
# Where two headings read alike, the source gives them in different places. Residues, ends and D or L forms follow the SMILES beside them.
# How the values were obtained:
# [1] = test system: SD rats, transient ischemic stroke; experiment: Transient middle cerebral artery occlusion (t-MCAO) model; format: in vivo, rat; conditions: Day 8; for Infarct volume: rat t-MCAO
# Experimental: Eighty-three Sprague-Dawley (SD) rats were randomly divided into six groups with both sexes as follows: 1) sham group (n=8), 2) vehicle group (n=15), 3) 0.1 mg/kg CN105 (n=15), 4) 0.2 mg/kg CN105 (n=15), 5) 0.4 mg/kg CN-105 (n=15), 6) 6mg/kg edaravone (n=15). Ischemic insult was introduced based on pre-established protocol. Briefly, rats were placed supine under anesthesia, and then the left common carotid arteries were exposed under sterile conditions. A suture was gently inserted into the internal carotid artery through the external carotid artery until the origin of the middle cerebral artery was occluded. The suture thread was removed 90 min after the ischemia, allowing restoration of the blood supply. Animals in the sham group were exposed of the left common carotid artery under anesthesia without ischemic occlusion. A single dose of CN-105 or edaravone were administered intravenously (iv.) 30min after reperfusion. The injection volume was 5mL/kg, given in 2 min. Animals in each group were euthanized at the end of the experiment. Brains were fixed in 10% formalin. The 3 mm-thick coronal brain sections were scanned and imaged to measure the percentage of viable and infarction brain tissue to calculate the percentage of cerebral infarction volume.
# [2] = in vivo; conditions: both, monkey, iv
# [3] = test system: NMDA receptor; experiment: Glutamate-induced currents in HEK293 cells stably expressing NMDA receptor; format: cell-based
# Excerpt: (§1) Figure S5. Amperograms of CN-105's effect on GluR (AMPA-R) in primary rat hippocampal neuronal cultures (Left) and on GluN (NMDA-R) in a culture of HEK293 cells stably expressing NMDA receptor (Right).
# [4] = molecular target: T1, α4β2-nAChR (Homo sapiens, UniProt P17787+P43681); experiment: Patch clamp of HEK293 cells transiently expressing nAChR α4β2; format: cell-based; conditions: four-parameter logistic fit; read-out: IC50, inhibition of α4β2-nAChR
# T1 construct: expressed in transfected cells; host or cells: HEK293 (transient)
# T1 sequence (P43681 29-627 limits assumed): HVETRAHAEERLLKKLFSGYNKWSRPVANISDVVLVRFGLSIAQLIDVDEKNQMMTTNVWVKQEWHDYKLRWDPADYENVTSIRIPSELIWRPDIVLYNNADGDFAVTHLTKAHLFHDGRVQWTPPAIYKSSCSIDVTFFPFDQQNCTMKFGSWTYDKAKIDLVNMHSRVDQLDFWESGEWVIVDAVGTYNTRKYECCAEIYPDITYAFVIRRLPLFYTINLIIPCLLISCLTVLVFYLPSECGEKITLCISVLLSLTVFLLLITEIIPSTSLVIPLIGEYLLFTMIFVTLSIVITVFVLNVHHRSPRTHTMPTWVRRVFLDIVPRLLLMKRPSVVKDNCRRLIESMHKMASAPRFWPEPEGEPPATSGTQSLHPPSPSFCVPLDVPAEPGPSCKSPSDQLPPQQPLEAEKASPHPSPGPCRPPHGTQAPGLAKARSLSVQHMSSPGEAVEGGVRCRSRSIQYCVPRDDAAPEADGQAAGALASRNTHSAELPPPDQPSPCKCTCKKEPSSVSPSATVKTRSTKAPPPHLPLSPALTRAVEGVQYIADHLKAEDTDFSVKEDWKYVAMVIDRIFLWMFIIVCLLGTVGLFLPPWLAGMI
# T1 sequence (P17787 26-502): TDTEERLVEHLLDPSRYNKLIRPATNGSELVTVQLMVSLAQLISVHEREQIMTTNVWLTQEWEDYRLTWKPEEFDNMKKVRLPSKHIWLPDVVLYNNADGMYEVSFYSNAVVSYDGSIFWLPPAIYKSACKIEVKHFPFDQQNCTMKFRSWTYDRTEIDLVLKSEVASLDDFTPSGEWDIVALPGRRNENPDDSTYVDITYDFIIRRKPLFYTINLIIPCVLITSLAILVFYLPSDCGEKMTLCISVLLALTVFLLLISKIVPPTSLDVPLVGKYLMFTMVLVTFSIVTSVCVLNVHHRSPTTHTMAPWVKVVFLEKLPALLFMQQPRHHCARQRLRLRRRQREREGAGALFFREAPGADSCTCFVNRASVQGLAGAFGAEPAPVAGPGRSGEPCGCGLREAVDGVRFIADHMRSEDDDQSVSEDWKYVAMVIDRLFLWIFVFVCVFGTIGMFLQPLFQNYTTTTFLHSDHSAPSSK
# Experimental: The patch clamp recording was performed on the third or fourth day after transfection based on the expression level of co-transfected GFP gene. Detailed description of the transfection procedures can be found in the Supporting information.
# nAChR α4β2: HEK293 cells were seeded on poly-D-lysine-coated coverslips placed in a 24-well plate at a density of 8×10^3 cells per well. Cells were transfected with nAChR α4/nAChR β2/GFP with the ratio 2:2:1. The X-tremeGENE HP DNA (Roche) was used for transfection, and the ratio of plasmid to transfection reagent was 1 μg: 2 μL.
# [5] = test system: C57BL6 mice; experiment: Mortality of C57BL6 mice after a single tail vein injection; format: in vivo
# [6] = molecular target: T2, α1β1δε-nAChR (Homo sapiens, UniProt P02708+P11230+Q04844+Q07001); experiment: Electrophysiology of oocytes injected with nAChR α, β, δ and ε cRNA; format: cell-based
# T2 construct: expressed in transfected cells
# T2 sequence (P02708 21-457): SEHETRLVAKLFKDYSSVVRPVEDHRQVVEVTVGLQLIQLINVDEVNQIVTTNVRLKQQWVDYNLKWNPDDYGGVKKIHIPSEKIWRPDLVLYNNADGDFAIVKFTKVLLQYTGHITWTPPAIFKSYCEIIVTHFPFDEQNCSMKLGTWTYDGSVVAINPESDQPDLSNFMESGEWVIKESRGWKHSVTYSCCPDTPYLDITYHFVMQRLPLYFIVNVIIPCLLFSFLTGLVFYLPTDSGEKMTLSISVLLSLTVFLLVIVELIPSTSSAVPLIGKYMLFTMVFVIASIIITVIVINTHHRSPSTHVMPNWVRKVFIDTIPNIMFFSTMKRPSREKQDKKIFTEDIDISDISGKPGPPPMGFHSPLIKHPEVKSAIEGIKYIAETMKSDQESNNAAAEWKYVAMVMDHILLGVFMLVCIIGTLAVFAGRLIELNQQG
# T2 sequence (P11230 24-501): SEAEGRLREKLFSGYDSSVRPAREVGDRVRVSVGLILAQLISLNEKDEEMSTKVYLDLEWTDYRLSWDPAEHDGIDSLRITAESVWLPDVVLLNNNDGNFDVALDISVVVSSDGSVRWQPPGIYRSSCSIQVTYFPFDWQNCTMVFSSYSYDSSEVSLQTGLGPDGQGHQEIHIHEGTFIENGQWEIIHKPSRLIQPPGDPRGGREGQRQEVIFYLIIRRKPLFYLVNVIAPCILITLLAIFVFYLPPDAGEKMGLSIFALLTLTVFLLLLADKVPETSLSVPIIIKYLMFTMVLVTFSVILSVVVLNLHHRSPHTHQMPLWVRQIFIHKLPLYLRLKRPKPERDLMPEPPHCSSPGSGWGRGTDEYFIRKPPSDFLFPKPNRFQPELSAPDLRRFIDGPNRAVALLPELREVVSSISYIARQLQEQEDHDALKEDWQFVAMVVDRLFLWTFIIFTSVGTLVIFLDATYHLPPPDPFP
# T2 sequence (Q07001 22-517): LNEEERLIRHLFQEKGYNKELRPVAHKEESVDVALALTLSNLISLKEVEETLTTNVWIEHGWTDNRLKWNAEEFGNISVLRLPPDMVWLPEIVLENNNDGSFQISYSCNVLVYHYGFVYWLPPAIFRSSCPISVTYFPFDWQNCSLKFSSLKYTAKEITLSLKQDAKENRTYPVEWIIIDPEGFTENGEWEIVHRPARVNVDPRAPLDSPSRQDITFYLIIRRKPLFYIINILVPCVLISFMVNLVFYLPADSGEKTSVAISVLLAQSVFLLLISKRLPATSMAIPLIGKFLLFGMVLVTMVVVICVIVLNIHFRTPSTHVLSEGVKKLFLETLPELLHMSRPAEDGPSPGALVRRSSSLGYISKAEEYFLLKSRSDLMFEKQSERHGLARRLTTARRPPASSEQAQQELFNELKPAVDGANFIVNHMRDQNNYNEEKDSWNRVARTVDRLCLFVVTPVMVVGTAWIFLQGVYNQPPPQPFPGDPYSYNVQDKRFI
# T2 sequence (Q04844 21-493): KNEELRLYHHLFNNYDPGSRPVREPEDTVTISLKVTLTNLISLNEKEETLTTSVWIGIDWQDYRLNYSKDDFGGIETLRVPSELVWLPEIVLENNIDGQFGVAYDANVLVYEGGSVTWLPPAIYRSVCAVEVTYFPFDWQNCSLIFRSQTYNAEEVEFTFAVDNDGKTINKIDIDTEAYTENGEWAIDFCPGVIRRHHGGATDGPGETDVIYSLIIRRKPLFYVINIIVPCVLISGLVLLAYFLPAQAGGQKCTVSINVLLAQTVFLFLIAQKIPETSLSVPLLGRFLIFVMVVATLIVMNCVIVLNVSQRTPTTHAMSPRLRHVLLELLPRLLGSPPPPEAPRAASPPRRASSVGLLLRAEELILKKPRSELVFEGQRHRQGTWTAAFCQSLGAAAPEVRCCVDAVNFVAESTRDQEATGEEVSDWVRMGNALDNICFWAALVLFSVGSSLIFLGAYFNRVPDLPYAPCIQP
# [7] = molecular target: T3, α7-nAChR (Homo sapiens, UniProt P36544); experiment: Patch clamp of ACh-induced currents, HEK293 cells stably expressing nAChR α7/RIC3; format: cell-based; conditions: for %Inhibition of α7-nAChR: peptide 200 nM, relative to currents induced by 9 μM ACh
# T3 sequence (P36544 23-502): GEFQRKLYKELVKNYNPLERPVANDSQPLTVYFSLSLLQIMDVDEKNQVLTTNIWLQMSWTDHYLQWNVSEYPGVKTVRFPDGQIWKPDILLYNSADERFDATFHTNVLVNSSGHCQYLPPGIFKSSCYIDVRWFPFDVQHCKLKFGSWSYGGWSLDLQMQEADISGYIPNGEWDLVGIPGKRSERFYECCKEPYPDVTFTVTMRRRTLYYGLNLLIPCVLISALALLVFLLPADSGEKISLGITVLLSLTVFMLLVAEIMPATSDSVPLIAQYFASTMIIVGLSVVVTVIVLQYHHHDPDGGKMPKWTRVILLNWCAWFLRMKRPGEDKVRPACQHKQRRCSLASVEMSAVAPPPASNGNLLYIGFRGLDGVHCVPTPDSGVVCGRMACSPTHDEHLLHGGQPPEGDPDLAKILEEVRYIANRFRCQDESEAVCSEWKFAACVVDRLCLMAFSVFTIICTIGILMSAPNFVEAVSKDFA
# [8] = test system: Cynologous monkey; experiment: GLP acute toxicology study, iv infusion; format: in vivo
# Experimental: The acute toxicology study of CN-105 was carried out at the facility of CTI Biotechnology (China) in accordance with GLP guidelines of the National Medical Product Administration (NMPA) of China. Briefly, six Cynologous (Cyn) monkeys were assigned to three dosing groups (n = 2/group, M:F= 1:1). The animals were given an iv. infusion of saline (Group 1), 25 mg/kg CN-105 (Group 2) or 100 mg/kg CN-105 (Group 3) twice a day. The infusion volume was 20mL/kg, while the infusion rate was 30min. Forty SD rats were assigned to four dosing groups (n = 10/group, M:F= 1:1) and were given an iv. injection of saline (Group 1), 15 mg/kg CN-105 (Group 2), 30 mg/kg CN-105 (Group 3) or 45 mg/kg CN-105 (Group 4) twice a day. The infusion volume was 5mL/kg, while the infusion rate was 10min. Animals were monitored for a variety of behavioral, physiological, histological and serological endpoints.
# [9] = test system: rat hippocampal brain slices; experiment: EPSC recording (evoked, spontaneous, miniature) in hippocampal brain slices; format: cell-based
# [10] = monkey, in vivo, iv
# [11] = rat, in vivo, iv
# [12] = in vivo; conditions: both, SD, rat, iv
# [13] = test system: AMPA receptor; experiment: Glutamate-induced currents of AMPA receptor in primary hippocampal neuronal cultures; format: cell-based; conditions: primary rat hippocampal neuronal cultures
# Experimental: Rat primary neuronal culture: Primary neuron cultures were prepared from newborn rats. A mixed culture of hippocampal, cortical and thalamic neurons was used for calcium imaging assays. For patch clamp studies, hippocampal neurons from the CA1 region were extracted. The trypsinized brain tissue was incubated at 37°C for 20 minutes before the removal of the enzyme. The cells were washed three times with PBS and suspended with fresh media before being plated on poly-D-lysine-coated coverslips. After 4 h, the media was replaced by Neurobasal+B27+L-Glu (Thermo scientific, USA). Half of the culture medium was changed after 24 h before switched to a 72-hr medium change routine.
# as §1
# [14] = molecular target: T3, α7-nAChR
molecule,measurement,setting,value
"CC(=O)N[C@H](C(=O)N[C@@H](CO)C(=O)N[C@@H](CCCNC(=N)N)C(=O)N[C@@H](CCCNC(=N)N)C(=O)N[C@@H](CCCNC(=N)N)C(N)=O)C(C)C [CN-105, Ac-VSRRR-NH2] (Ac-VSRRR-NH2)",Density of viable neurons (NeuN+ cells),[1]; 1 mm2 area at infarct margin,higher
same,Number of β3-GABAAR+ cells at infarct margin,[1]; 1 mm2 area,unaffected
same,Density of α7-nAChR+ cells at infarct margin versus vehicle,"[1]; primary somatosensory cortex, 1 mm2 area",higher density
same,Infarct volume,[1]; 0.1 to 0.4 mg/kg single iv 30 min after reperfusion,significantly reduced
same,AUC(0-t),[2]; 0.1 mg/kg,348 ± 33.7 ng·h/mL
same,Cmax,[2]; 0.1 mg/kg,320 ± 20.2 ng/mL
same,Tmax,[2]; 0.1 mg/kg,30 min
same,Vd,[2]; 0.1 mg/kg,0.564 ± 0.271 L/kg
same,clearance,[2]; 0.1 mg/kg,4.75 mL/min/kg
same,half-life,[2]; 0.1 mg/kg,82.8 ± 39.6 min
same,AUC(0-t),[2]; 0.5 mg/kg,1650 ± 209 ng·h/mL
same,Cmax,[2]; 0.5 mg/kg,1500 ± 251 ng/mL
same,Tmax,[2]; 0.5 mg/kg,30 min
same,Vd,[2]; 0.5 mg/kg,0.642 ± 0.086 L/kg
same,clearance,[2]; 0.5 mg/kg,5.12 mL/min/kg
same,half-life,[2]; 0.5 mg/kg,87.6 ± 10.3 min
same,AUC(0-t),[2]; 2.5 mg/kg,8300 ± 1200 ng·h/mL
same,Cmax,[2]; 2.5 mg/kg,7460 ± 1190 ng/mL
same,Tmax,[2]; 2.5 mg/kg,30 min
same,Vd,[2]; 2.5 mg/kg,0.691 ± 0.107 L/kg
same,clearance,[2]; 2.5 mg/kg,5.08 mL/min/kg
same,half-life,[2]; 2.5 mg/kg,94.8 ± 12 min
same,"Direct effect on glutamate-induced currents, NMDA receptor",[3],did not directly inhibit
same,IC50,[4],500 nM
same,Observation after removal of isoflurane anaesthesia,"[5]; 50 mg/kg, intubated and mechanically ventilated",extended sedation
same,Symptoms at lethal dose,"[5]; C57BL6 mice, 25 mg/kg tail vein",spasm and respiratory suppression
same,Mortality under intubation and mechanical ventilation,"[5]; C57BL6 mice, 50 mg/kg, mechanical ventilation with isoflurane anaesthesia",not associated with mortality
same,LD80,"[5]; C57BL6 mice, single tail vein injection, autonomous respiration",25 mg/kg
same,IC50,[6],2100 nM
same,Effect on ACh induced current,"[7]; 10 μM CN-105, HEK293 overexpressing α7-nAChR",strongly suppressed
same,IC50,"[7]; four-parameter logistic fit, read-out: IC50, inhibition of α7-nAChR",31 nM
same,%Inhibition of α7-nAChR,[7],61.4%
same,Voltage of maximal inhibition,"[7]; voltage dependency, CN-105 40 nM",–80 mV
same,Time of gradual recovery to normal activity (about two serum clearance half-lives),[8]; supratherapeutic dosing,~4 h
same,Symptoms after supratherapeutic dosing,[8]; supratherapeutic iv dosing,mydriasis and ptosis
same,Spontaneous EPSC (sEPSC) frequency,"[9]; rat hippocampal brain slice, CN-105 200 μM as printed in Figure 3 legend",attenuation
same,Evoked EPSC mediated by NMDA receptor versus control,"[9]; rat hippocampal brain slices, holding +50 mV",significantly lower
same,Evoked EPSC mediated by AMPA receptor versus control,"[9]; rat hippocampal brain slices, holding -70 mV",significantly lower
same,NMDA receptor-mediated EPSC with tetrodotoxin (mEPSC),[9]; tetrodotoxin added to block all AP firings,no longer able to affect
same,Kel,[10]; 0.1 mg/kg,0.566 ± 0.156 h⁻¹
same,Kel,[10]; 0.5 mg/kg,0.481 ± 0.058 h⁻¹
same,Kel,[10]; 2.5 mg/kg,0.445 ± 0.054 h⁻¹
same,Kel,[11]; 0.1 mg/kg,2.09 ± 0.258 h⁻¹
same,Kel,[11]; 0.3 mg/kg,1.73 ± 0.203 h⁻¹
same,Kel,[11]; 1 mg/kg,1.13 ± 0.106 h⁻¹
same,Kel,[11]; 3 mg/kg,0.823 ± 0.204 h⁻¹
same,AUC(0-t),[12]; 0.1 mg/kg,125 ± 14.3 ng·h/mL
same,C0,[12]; 0.1 mg/kg,560 ± 181 ng/mL
same,Cmax,[12]; 0.1 mg/kg,410 ± 90.5 ng/mL
same,Tmax,[12]; 0.1 mg/kg,2.3 ± 0.948 min
same,Vd,[12]; 0.1 mg/kg,0.385 ± 0.0711 L/kg
same,clearance,[12]; 0.1 mg/kg,13.2 mL/min/kg
same,half-life,[12]; 0.1 mg/kg,20.2 ± 2.52 min
same,AUC(0-t),[12]; 0.3 mg/kg,504 ± 56.6 ng·h/mL
same,C0,[12]; 0.3 mg/kg,2250 ± 463 ng/mL
same,Cmax,[12]; 0.3 mg/kg,1570 ± 211 ng/mL
same,Tmax,[12]; 0.3 mg/kg,2 min
same,Vd,[12]; 0.3 mg/kg,0.342 ± 0.0363 L/kg
same,clearance,[12]; 0.3 mg/kg,9.8 mL/min/kg
same,half-life,[12]; 0.3 mg/kg,24.3 ± 3.3 min
same,AUC(0-t),[12]; 1 mg/kg,1800 ± 192 ng·h/mL
same,C0,[12]; 1 mg/kg,7680 ± 1740 ng/mL
same,Cmax,[12]; 1 mg/kg,5320 ± 906 ng/mL
same,Tmax,[12]; 1 mg/kg,2 min
same,Vd,[12]; 1 mg/kg,0.5 ± 0.085 L/kg
same,clearance,[12]; 1 mg/kg,9.28 mL/min/kg
same,half-life,[12]; 1 mg/kg,37.2 ± 3.87 min
same,AUC(0-t),[12]; 3 mg/kg,5920 ± 508 ng·h/mL
same,C0,[12]; 3 mg/kg,24000 ± 2360 ng/mL
same,Cmax,[12]; 3 mg/kg,17000 ± 1400 ng/mL
same,Tmax,[12]; 3 mg/kg,2 min
same,Vd,[12]; 3 mg/kg,0.645 ± 0.137 L/kg
same,clearance,[12]; 3 mg/kg,8.48 mL/min/kg
same,half-life,[12]; 3 mg/kg,52.8 ± 10.2 min
same,"Direct effect on glutamate-induced currents, AMPA receptor",[13],did not directly inhibit
CC(=O)N[C@H](C(=O)N[C@@H](CS)C(=O)N[C@@H](CCCNC(=N)N)C(=O)N[C@@H](CCCNC(=N)N)C(=O)N[C@@H](CCCNC(=N)N)C(N)=O)C(C)C [Ac-VCRRR-NH2] (Ac-VCRRR-NH2),%Inhibition of α7-nAChR,[7],5.9%
CC(=O)N[C@@H](C)C(=O)N[C@@H](CO)C(=O)N[C@@H](CCCNC(=N)N)C(=O)N[C@@H](CCCNC(=N)N)C(=O)N[C@@H](CCCNC(=N)N)C(N)=O [Ac-ASRRR-NH2] (Ac-ASRRR-NH2),%Inhibition of α7-nAChR,[7],7.4%
apoE130‐149 (peptide),"IC50 of inhibition of α7‐nAChR current (electrophysiology); given only as the concentration used, close to the IC50",[14],500 nM
CC(=O)N[C@H](C(=O)N[C@@H](CO)C(=O)N[C@@H](CCCCN)C(=O)N[C@@H](CCCCN)C(=O)N[C@@H](CCCNC(=N)N)C(N)=O)C(C)C [Ac-VSKKR-NH2] (Ac-VSKKR-NH2),%Inhibition of α7-nAChR,[7],48.9%
CC(=O)N[C@@H](CCCNC(=N)N)C(=O)N[C@@H](CO)C(=O)N[C@@H](CCCCN)C(=O)N[C@@H](CCCNC(=N)N)C(=O)N[C@@H](CCCNC(=N)N)C(N)=O [Ac-RSKRR-NH2] (Ac-RSKRR-NH2),%Inhibition of α7-nAChR,[7],9.3%
"CC1=NN(c2ccccc2)C(=O)C1 [edaravone, reference compound]",Infarct volume,[1]; edaravone 6 mg/kg single iv 30 min after reperfusion,similar
CSCC[C@H](NC(C)=O)C(=O)N[C@@H](CO)C(=O)N[C@@H](CCCNC(=N)N)C(=O)N[C@@H](CCCNC(=N)N)C(=O)N[C@@H](CCCNC(=N)N)C(N)=O [Ac-MSRRR-NH2] (Ac-MSRRR-NH2),%Inhibition of α7-nAChR,[7],38.3%
Ac-VSRRR-NH2 [CN‐105],"IC50 of inhibition of α7‐nAChR current (electrophysiology); given only as the concentration used, close to the IC50",[14],40 nM
